Results published in publication PMC4933336, “Examining the Effects of Sodium Ions on the Binding of Antagonists to Dopamine D2 and D3 Receptors” (PLoS ONE, 2016).

Target: T1, dopamine D3 receptor (D3), Sf9 (Homo sapiens, UniProt P35462)
T1 construct: gene DRD3; full-length from pCMV5-hD3, no tag mentioned; membranes of Sf9 cells (baculovirus)
Assay: [3H]spiperone competition binding, Sf9 membranes
Settings: read-out: D3 / + NaCl

T1 sequence (P35462 whole entry): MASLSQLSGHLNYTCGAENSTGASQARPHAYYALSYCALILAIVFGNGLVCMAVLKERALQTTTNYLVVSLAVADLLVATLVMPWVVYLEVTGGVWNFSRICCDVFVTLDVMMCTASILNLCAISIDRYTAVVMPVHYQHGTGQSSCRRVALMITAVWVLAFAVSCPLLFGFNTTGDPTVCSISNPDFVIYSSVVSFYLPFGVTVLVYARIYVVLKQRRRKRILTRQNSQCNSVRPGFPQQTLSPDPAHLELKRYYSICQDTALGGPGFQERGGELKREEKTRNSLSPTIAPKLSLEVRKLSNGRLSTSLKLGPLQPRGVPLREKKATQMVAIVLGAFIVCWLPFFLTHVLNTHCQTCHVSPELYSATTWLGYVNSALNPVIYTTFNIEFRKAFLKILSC

Compound	IC50 [nM]
COc1ccccc1N1CCN(CCCCNC(=O)c2ccc(-c3ccc(C(C)=O)cc3)cc2)CC1 [GR 103691]	0.46
CCCN(CCC)C1Cc2cc(OC)c(OC)cc2C1 [U 99194]	532
